Entries after “also recorded” stand apart in the source; their conditions may differ.
Experiments:
RPMI 8226 cells [1] = experiment: RPMI 8226 cytotoxicity EC50 measurements (WST-1); assay type: cell-based, human; settings: RPMI 8226, 48 hours
Procedure: (§1) RPMI 8226 cells were seeded in a 96-well plate (20,000 cells/well) in cell culture media supplemented with indicated compounds (1,000× stock in DMSO) or DMSO and cultured for 48 hours. Toxicity was determined using the WST-1 assay (Roche) according to the protocol of the manufacturer. (n=3)
as §1, with “Cytotoxicity of phenyl cepafungin (50) and hybrid analog (S39) in RPMI 8226 RPMI” for “RPMI”

proteasome subunit β5 = target: T1, proteasome subunit β5 (Homo sapiens, UniProt P28074); experiment: Proteasome inhibition IC50 measurements in RPMI 8226 cells, substrate Suc-LLVY-AMC (β5); assay type: cell-based; settings: β5, RPMI 8226 cells
T1 construct: Cells were then collected and lysed; endogenous in cells; host or cells: RPMI 8226
Source text: Our preliminary series of analogs (FIG. 3), including the natural product glidobactin A (2), were synthesized by largely the same route (FIG. 2).^13 Desoxycepafungin (38) was synthesized from Boc-Lys(Boc)-OH to assess the role of the macrocycle hydroxylation in 1 towards proteasome inhibition. The saturated cepafungin analog 39 was designed to address the possible role of rigidity in the tail fragment induced by the diene seen in many natural cepafungins and glidobactins. An analog bearing unsaturation at its macrocyclic lysine was envisioned to provide a head-to-head comparison between the cepafungin and syringolin A (4) macrocyclic core. […] Proteasome subunit β5 IC50 values were determined in situ in RPMI 8226 cells (FIG. 3). In close agreement with prior measurement of β5 IC50 for natural 1 and 2 in purified yeast proteasome,^8 in our hands the additional branching methyl in 1 indeed leads to ca. 5-fold improved IC50 compared to 2 in RPMI 8226 cells. […] Likewise, saturation of the fatty acid fragment in 39 causes ca. 14-fold decrease in β5 inhibition. This preliminary series of analogs highlighted that the macrocyclic hydroxylation, fatty acid unsaturation, and terminal lipid functionality are critical for potent proteasome inhibitory activity.
Cellular assays were performed with human multiple myeloma cell line RPMI 8226. First, relative inhibition of proteasome subunits β5 and β2 for all analogs and the natural product was measured at 30 nM compound concentration. Following incubation of the analogs in cell culture for 6 hours, cells were lysed and fluorogenic subunit-specific peptide substrates Suc-LLVY-AMC (β5) or Ac-RLR-AMC (β2) were incubated with the lysates, and fluorescence readings provided relative proteasome activity levels with respect to DMSO (FIG. 6A). Next, cytotoxicity screening was performed at 30 nM and 100 nM concentrations for better coverage of dynamic range (FIG. 6B). […] Therefore, the improved cytotoxicity of phenyl cepafungin 50 likely results from a more pronounced loss of β5 function in RPMI 8226 cells. This drastic increase in proteasome inhibition may be due to pi-stacking of the lipid tail phenyl ring with the β6 subunit residues Tyr106 and/or Tyr5. The β2 subunit-bound natural product has residues Tyr102 and Phe103 on the adjacent β3 subunit oriented further away from the terminal lipid methyl groups, and presumably would not facilitate pi-stacking to the extent possible at the adjacent β6 subunit (see FIG. 4, FIG. 9). […]
RPMI 8226 cells were seeded in a 6-well plate (1,000,000 cells/well) in cell culture media supplemented with indicated compounds (1,000× stock in DMSO) or DMSO and cultured for 6 hours. […] The plates were incubated at 37° C. for one hour and fluorescence was read at A360ex/A460em. […]

RPMI 8226 cells [2] = experiment: RPMI8226 cytotoxicity screening (WST-1); assay type: cell-based, human; settings: for cytotoxicity / activity compared with the natural product, in words: 30 nM and 100 nM compound concentration; for potency compared with parent natural product 1 in screening (FIG. 6A, 6B): 30 nM and 100 nM, cytotoxicities track with proteasome inhibition at 30 nM
Procedure: Cellular assays were performed with human multiple myeloma cell line RPMI 8226. First, relative inhibition of proteasome subunits β5 and β2 for all analogs and the natural product was measured at 30 nM compound concentration. Following incubation of the analogs in cell culture for 6 hours, cells were lysed and fluorogenic subunit-specific peptide substrates Suc-LLVY-AMC (β5) or Ac-RLR-AMC (β2) were incubated with the lysates, and fluorescence readings provided relative proteasome activity levels with respect to DMSO (FIG. 6A). Next, cytotoxicity screening was performed at 30 nM and 100 nM concentrations for better coverage of dynamic range (FIG. 6B). […] Therefore, the improved cytotoxicity of phenyl cepafungin 50 likely results from a more pronounced loss of β5 function in RPMI 8226 cells. This drastic increase in proteasome inhibition may be due to pi-stacking of the lipid tail phenyl ring with the β6 subunit residues Tyr106 and/or Tyr5. The β2 subunit-bound natural product has residues Tyr102 and Phe103 on the adjacent β3 subunit oriented further away from the terminal lipid methyl groups, and presumably would not facilitate pi-stacking to the extent possible at the adjacent β6 subunit (see FIG. 4, FIG. 9). […] These combined modifications were made in hopes that the effects of both substitutions would be additive.
[…] Toxicity was determined using the WST-1 assay (Roche) according to the protocol of the manufacturer. (n=3)

CC(C)[C@H]1/C=C/C(=O)NCC[C@H](O)C[C@H](NC(=O)[C@@H](NC(=O)/C=C/C=C/CCCCCc2ccccc2)[C@@H](C)O)C(=O)N1 [S39, (2E,4E)-N-((2S,3R)-3-hydroxy-1-(((5S,8S,10S,E)-10-hydroxy-5-isopropyl-2,7-dioxo-1,6-diazacyclododec-3-en-8-yl)amino)-1-oxobutan-2-yl)-10-phenyldeca-2,4-dienamide]
EC50 (RPMI 8226 cells [1]; Homo sapiens, WST-1): 4.5 nM
cytotoxicity EC50 compared with natural product and 50, in words (RPMI 8226 cells [1]): significantly more potent than the natural product; also recorded: its cytotoxicity did not surpass that of 50

CC(C)CCCCC/C=C/C=C/C(=O)N[C@H](C(=O)N[C@H]1CCCCNC(=O)/C=C/[C@H](C)NC1=O)[C@@H](C)O [compound 38, Desoxycepafungin]
fold higher IC50 than 1 (proteasome subunit β5): ca. 11 fold

CC(C)CCCCC/C=C/C=C/C(=O)N[C@H](C(=O)N[C@H]1C[C@H](O)CCNC(=O)/C=C/[C@H](C)NC1=O)[C@@H](C)O [compound 40, (2E,4E)-N-((2S,3R)-3-hydroxy-1-(((5S,8S,10R,E)-10-hydroxy-5-methyl-2,7-dioxo-1,6-diazacyclododec-3-en-8-yl)amino)-1-oxobutan-2-yl)-11-methyldodeca-2,4-dienamide]
cytotoxicity / activity compared with the natural product, in words (RPMI 8226 cells [2]): nearly inactive at both concentrations

CC(C)CCCCC/C=C/C=C/C(=O)N[C@H](C(=O)N[C@@H]1C(=O)N[C@@H](C)/C=C/C(=O)NCCC[C@@H]1O)[C@@H](C)O [compound 41, (2E,4E)-N-((2S,3R)-3-hydroxy-1-(((5S,8S,9S,E)-9-hydroxy-5-methyl-2,7-dioxo-1,6-diazacyclododec-3-en-8-yl)amino)-1-oxobutan-2-yl)-11-methyldodeca-2,4-dienamide]
cytotoxicity / activity compared with the natural product, in words (RPMI 8226 cells [2]): nearly inactive at both concentrations

CC(C)CCCCC/C=C/C=C/C(=O)N[C@H](C(=O)N[C@H]1CC(=O)CCNC(=O)/C=C/[C@H](C)NC1=O)[C@@H](C)O [compound 42, (2E,4E)-N-((2S,3R)-3-hydroxy-1-(((5S,8S,E)-5-methyl-2,7,10-trioxo-1,6-diazacyclododec-3-en-8-yl)amino)-1-oxobutan-2-yl)-11-methyldodeca-2,4-dienamide]
cytotoxicity / activity compared with the natural product, in words (RPMI 8226 cells [2]): potency approaching that of the natural product

CC(C)CCCCC/C=C/C=C/C(=O)N[C@H](C(=O)N[C@H]1C[C@@H](O)CCNC(=O)/C=C/[C@H](C(C)C)NC1=O)[C@@H](C)O [compound 43, (2E,4E)-N-((2S,3R)-3-hydroxy-1-(((5S,8S,10S,E)-10-hydroxy-5-isopropyl-2,7-dioxo-1,6-diazacyclododec-3-en-8-yl)amino)-1-oxobutan-2-yl)-11-methyldodeca-2,4-dienamide]
cytotoxicity / activity compared with the natural product, in words (RPMI 8226 cells [2]): slightly greater cytotoxicity than the natural product
potency compared with parent natural product 1 in screening (FIG. 6A, 6B) (RPMI 8226 cells [2]): more potent than the parent natural product 1

CC[C@H](NC(=O)/C=C/C=C/CCCCCC(C)C)C(=O)N[C@H]1C[C@@H](O)CCNC(=O)/C=C/[C@H](C)NC1=O [compound 44, (2E,4E)-N—((S)-1-(((5S,8S,10S,E)-10-hydroxy-5-methyl-2,7-dioxo-1,6-diazacyclododec-3-en-8-yl)amino)-1-oxobutan-2-yl)-11-methyldodeca-2,4-dienamide]
cytotoxicity / activity compared with the natural product, in words (RPMI 8226 cells [2]): Thr residue next to the cepafungin macrocycle appears to be favored over the ethyl sidechain of desoxy-Thr analog 44

CC(C)CCCCC/C=C/C=C/C(=O)N[C@H](C(=O)N[C@H]1C[C@@H](O)CCNC(=O)/C=C/[C@H](C)NC1=O)[C@H](O)c1ccccc1 [compound 45, (2E,4E)-N-((1R,2S)-1-hydroxy-3-(((5S,8S,10S,E)-10-hydroxy-5-methyl-2,7-dioxo-1,6-diazacyclododec-3-en-8-yl)amino)-3-oxo-1-phenylpropan-2-yl)-11-methyldodeca-2,4-dienamide]
cytotoxicity / activity compared with the natural product, in words (RPMI 8226 cells [2]): substantially weaker

CC(C)CCCCC/C=C/C=C/C(=O)N[C@H](C(=O)N[C@H]1C[C@@H](O)CCNC(=O)/C=C/[C@H](C)NC1=O)[C@H](O)C(C)C [compound 46, (2E,4E)-N-((2S,3R)-3-hydroxy-1-(((5S,8S,10S,E)-10-hydroxy-5-methyl-2,7-dioxo-1,6-diazacyclododec-3-en-8-yl)amino)-4-methyl-1-oxopentan-2-yl)-11-methyldodeca-2,4-dienamide]
cytotoxicity / activity compared with the natural product, in words (RPMI 8226 cells [2]): approached the potency of the natural product

C[C@H]1/C=C/C(=O)NCC[C@H](O)C[C@H](NC(=O)[C@@H](NC(=O)/C=C/C=C/CCCCCC(C)(C)C)[C@@H](C)O)C(=O)N1 [compound 47, (2E,4E)-N-((2S,3R)-3-hydroxy-1-(((5S,8S,10S,E)-10-hydroxy-5-methyl-2,7-dioxo-1,6-diazacyclododec-3-en-8-yl)amino)-1-oxobutan-2-yl)-11,11-dimethyldodeca-2,4-dienamide]
cytotoxicity / activity compared with the natural product, in words (RPMI 8226 cells [2]): improved cytotoxicity relative to 1
potency compared with parent natural product 1 in screening (FIG. 6A, 6B) (RPMI 8226 cells [2]): more potent than the parent natural product 1

C[C@H]1/C=C/C(=O)NCC[C@H](O)C[C@H](NC(=O)[C@@H](NC(=O)/C=C/C=C/CCCCCC2CCCC2)[C@@H](C)O)C(=O)N1 [compound 48, (2E,4E)-10-cyclopentyl-N-((2S,3R)-3-hydroxy-1-(((5S,8S,10S,E)-10-hydroxy-5-methyl-2,7-dioxo-1,6-diazacyclododec-3-en-8-yl)amino)-1-oxobutan-2-yl)deca-2,4-dienamide]
cytotoxicity / activity compared with the natural product, in words (RPMI 8226 cells [2]): improved cytotoxicity relative to 1
potency compared with parent natural product 1 in screening (FIG. 6A, 6B) (RPMI 8226 cells [2]): more potent than the parent natural product 1

C[C@H]1/C=C/C(=O)NCC[C@H](O)C[C@H](NC(=O)[C@@H](NC(=O)/C=C/C=C/CCCCCC2CCCCC2)[C@@H](C)O)C(=O)N1 [compound 49, (2E,4E)-10-cyclohexyl-N-((2S,3R)-3-hydroxy-1-(((5S,8S,10S,E)-10-hydroxy-5-methyl-2,7-dioxo-1,6-diazacyclododec-3-en-8-yl)amino)-1-oxobutan-2-yl)deca-2,4-dienamide]
cytotoxicity / activity compared with the natural product, in words (RPMI 8226 cells [2]): roughly similar activity as the natural product

C[C@H]1/C=C/C(=O)NCC[C@H](O)C[C@H](NC(=O)[C@@H](NC(=O)/C=C/C=C/CCCCCC(F)(F)F)[C@@H](C)O)C(=O)N1 [compound 51, (2E,4E)-11,11,11-trifluoro-N-((2S,3R)-3-hydroxy-1-(((5S,8S,10S,E)-10-hydroxy-5-methyl-2,7-dioxo-1,6-diazacyclododec-3-en-8-yl)amino)-1-oxobutan-2-yl)undeca-2,4-dienamide]
cytotoxicity / activity compared with the natural product, in words (RPMI 8226 cells [2]): essentially inactive at both concentrations tested
